Measurements taken from patent publication US20030187007A1, “Inhibitors of protein kinase for the treatment of disease” (priority 2001, published 2003).

Assays:
[1] = tested on: IGROV1; test: In vitro tumor cell efficacy test (SRB), Ovarian Cancer; type: cell-based; settings: Homo sapiens, IGROV-1, 72 hours
[2] = tested on: MOLT-4; test: In vitro tumor cell efficacy test (SRB), Leukemia; type: cell-based; settings: Homo sapiens, MOLT-4, Leukemia, 72 hours
[3] = tested on: NCI-H23; type: cell-based; settings: Homo sapiens, NCI-H23, Non-Small Cell Lung Cancer, 72 hours
[4] = tested on: MDA-MB-435; test: In vitro tumor cell efficacy test (SRB), Breast Cancer; type: cell-based; settings: Homo sapiens, MDA-MB-435, Breast Cancer, 72 hours
[5] = tested on: SNB-75; test: In vitro tumor cell efficacy test (SRB), CNS Cancer; type: cell-based; settings: Homo sapiens, SNB-75, CNS Cancer, 72 hours
[6] = tested on: SN12C; test: In vitro tumor cell efficacy test (SRB), Renal Cancer; type: cell-based; settings: Homo sapiens, 72 hours
[7] = tested on: SK-MEL-2; test: In vitro tumor cell efficacy test (SRB), Melonoma; type: cell-based; settings: Homo sapiens, SK-MEL-2, Melonoma, 72 hours
[8] = tested on: SNB-19; test: In vitro tumor cell efficacy test (SRB), CNS Cancer; type: cell-based; settings: Homo sapiens, SNB-19, CNS Cancer, 72 hours
[9] = tested on: HCT-116; test: In vitro tumor cell efficacy test (SRB), Colon Cancer; type: cell-based; settings: Homo sapiens; HCT-116, Colon Cancer, 72 hours
[10] = tested on: NCI-H460; type: cell-based; settings: Homo sapiens, NCI-H460, Non-Small Cell Lung Cancer, 72 hours
[11] = tested on: HCT-15; test: In vitro tumor cell efficacy test (SRB), Colon Cancer; type: cell-based; settings: Homo sapiens; HCT-15, Colon Cancer, 72 hours
[12] = tested on: ACHN; test: In vitro tumor cell efficacy test (SRB), Renal Cancer; type: cell-based; settings: Homo sapiens, 72 hours
[13] = tested on: SF-539; test: In vitro tumor cell efficacy test (SRB), CNS Cancer; type: cell-based; settings: Homo sapiens; SF-539, CNS Cancer, 72 hours
[14] = tested on: HS 578T; test: In vitro tumor cell efficacy test (SRB), Breast Cancer; type: cell-based; settings: Homo sapiens, 72 hours
[15] = tested on: UO-31; test: In vitro tumor cell efficacy test (SRB), Renal Cancer; type: cell-based; settings: Homo sapiens, UO-31, Renal Cancer, 72 hours
[16] = tested on: SR; test: In vitro tumor cell efficacy test (SRB), Leukemia; type: cell-based; settings: Homo sapiens, 72 hours
[17] = tested on: MCF7; test: In vitro tumor cell efficacy test (SRB), Breast Cancer; type: cell-based; settings: Homo sapiens, 72 hours
[18] = tested on: U251; test: In vitro tumor cell efficacy test (SRB), CNS Cancer; type: cell-based; settings: Homo sapiens, U-251, 72 hours
[19] = tested on: SK-OV-3; test: In vitro tumor cell efficacy test (SRB), Ovarian Cancer; type: cell-based; settings: Homo sapiens, SK-OV-3, Ovarian Cancer, 72 hours
[20] = tested on: HL-60(TB); test: In vitro tumor cell efficacy test (SRB), Leukemia; type: cell-based; settings: Homo sapiens, 72 hours
[21] = tested on: HOP-62; type: cell-based; settings: Homo sapiens, HOP-62, Non-Small Cell Lung Cancer, 72 hours
[22] = tested on: SF-268; test: In vitro tumor cell efficacy test (SRB), CNS Cancer; type: cell-based; settings: Homo sapiens, SF-268, CNS Cancer, 72 hours
[23] = tested on: RXF 393; test: In vitro tumor cell efficacy test (SRB), Renal Cancer; type: cell-based; settings: Homo sapiens, RXF 393, Renal Cancer, 72 hours
[24] = tested on: NCI/ADR-RES; test: In vitro tumor cell efficacy test (SRB), Breast Cancer; type: cell-based; settings: Homo sapiens, 72 hours
[25] = tested on: MALME-3M; test: In vitro tumor cell efficacy test (SRB), Melonoma; type: cell-based; settings: Homo sapiens, 72 hours
[26] = tested on: OVCAR-3; test: In vitro tumor cell efficacy test (SRB), Ovarian Cancer; settings: Homo sapiens, OVCAR-3, 72 h
[27] = tested on: A549/ATCC; type: cell-based; settings: Homo sapiens, Non-Small Cell Lung Cancer, 72 hours
[28] = tested on: 786-0; test: In vitro tumor cell efficacy test (SRB), Renal Cancer; type: cell-based; settings: Homo sapiens, 786-0, Renal Cancer, 72 hours
[29] = tested on: DU-145; test: In vitro tumor cell efficacy test (SRB), Prostate Cancer; type: cell-based; settings: Homo sapiens; DU-145, Prostate Cancer, 72 hours
[30] = tested on: T-47D; test: In vitro tumor cell efficacy test (SRB), Breast Cancer; type: cell-based; settings: Homo sapiens, T47D, 72 hours
[31] = tested on: SF-295; test: In vitro tumor cell efficacy test (SRB), CNS Cancer; type: cell-based; settings: Homo sapiens, SF-295, CNS Cancer, 72 hours
[32] = tested on: UACC-62; test: In vitro tumor cell efficacy test (SRB), Melonoma; type: cell-based; settings: Homo sapiens, UACC-62, Melonoma, 72 hours
[33] = tested on: OVCAR-4; test: In vitro tumor cell efficacy test (SRB), Ovarian Cancer; type: cell-based; settings: Homo sapiens, OVCAR-4, Ovarian Cancer, 72 hours
[34] = read-out: Log (LC50) (the source's name) (converted)

Nc1nccc(-c2cc(-c3ccc(O)cc3)ccc2O)n1 [3-(2-Amino-pyrimidin-4-yl)-biphenyl-4,4′-diol] showed a GI50 [1] of 251 nM, a CC50 [1, 34] greater than 100000 nM and a GI50 [2] of 251 nM. For the same compound, the CC50 [2, 34] was greater than 100000 nM, the GI50 [3] was 251 nM and the CC50 [3, 34] was greater than 100000 nM. The GI50 [4] was 251 nM, the CC50 [4, 34] was greater than 100000 nM and the GI50 [5] was 2000 nM. The CC50 [5, 34] was greater than 100000 nM, the GI50 [6] was 251 nM and the CC50 [6, 34] was greater than 100000 nM. For the same compound, the GI50 [7] was 200 nM, the CC50 [7, 34] was 3160 nM and the GI50 [8] was 200 nM. For the same compound, the CC50 [8, 34] was 20000 nM, the GI50 [9] was 158 nM and the LC50 (concentration killing 50% of cells) [9] was greater than 100000 nM. It also gave a GI50 [10] of 251 nM, a CC50 [10, 34] greater than 100000 nM and a GI50 [11] of 126 nM. The LC50 [11] was greater than 100000 nM, the GI50 [12] was 251 nM and the CC50 [12, 34] was greater than 100000 nM. The GI50 [13] was 200 nM, the LC50 [13] was greater than 100000 nM and the GI50 [14] was 398 nM. The CC50 [14, 34] was greater than 100000 nM, the GI50 [15] was 251 nM and the CC50 [15, 34] was greater than 100000 nM. For the same compound, the GI50 [16] was 10 nM, the CC50 [16, 34] was greater than 100000 nM and the GI50 [17] was 251 nM. For the same compound, the LC50 [17] was greater than 100000 nM, the GI50 [18] was 200 nM and the CC50 [18, 34] was greater than 100000 nM. For the same compound, the GI50 [19] was 501 nM, the CC50 [19, 34] was greater than 100000 nM and the GI50 [20] was 126 nM. For the same compound, the CC50 [20, 34] was 79400 nM, the GI50 [21] was 79.4 nM and the CC50 [21, 34] was 7940 nM. The GI50 [22] was 251 nM, the CC50 [22, 34] was greater than 100000 nM and the GI50 [23] was 1000 nM. It also gave a CC50 [23, 34] of 6310 nM, a GI50 [24] of 316 nM and a CC50 [24, 34] greater than 100000 nM. It also gave a GI50 [25] of 501 nM, a CC50 [25, 34] greater than 100000 nM and a CC50 ([26]; read-out: Log (LC50) (M) (converted)) greater than 0.0001 M. It also gave a GI50 ([26]; read-out: log (GI50) (M) (converted)) of 2.51e-07 M, a GI50 [27] of 316 nM and a GI50 [28] of 251 nM. It also gave a CC50 [28, 34] greater than 100000 nM, a GI50 [29] of 794 nM and an LC50 [29] greater than 100000 nM. For the same compound, the GI50 [30] was 2000 nM, the CC50 [30, 34] was 50100 nM and the GI50 [31] was 251 nM. It also gave a CC50 [31, 34] greater than 100000 nM, a GI50 [32] of 200 nM and a CC50 [32, 34] of 12600 nM. It also gave a GI50 [33] of 316 nM and a CC50 [33, 34] greater than 100000 nM.
